US20150352108A1, “AMINO-PYRIMIDINE COMPOUNDS AS INHIBITORS OF TBK1 AND/OR IKK EPSILON” (Alzheimer's Institute of America, priority 2009, published 2015)

Legend:
[1] = tested on: RANTES production, human fibroblast-like synoviocytes (HFLS-RA); experiment: Inhibition of RANTES production by HFLS-RA cells induced with Poly(I:C); format: cell-based; conditions: Poly(I:C) induction
Experimental: HFLS cells (HFLS-RA) isolated from patients with rheumatoid arthritis were obtained from Cell Applications, Inc. (San Diego, Calif.). Cells were seeded in synoviocyte growth medium (Cell Applications, Inc., San Diego, Calif.) and allowed to grow overnight. The following day, media was replaced and cells were treated with varying concentrations of selected compounds according to Formula I (e.g., Example Compound 5) (0.1% final DMSO concentration). Two hours later, cells were induced with 50 µg/mL Poly(I:C) (Sigma-Aldrich, St. Louis, Mo.). Supernatants were collected 20 hours post-induction and used to monitor RANTES and IP-10 levels using DuoSet ELISA kits (Human CXCL10/IP-10 DuoSet & Human CCL5/RANTES DuoSet; R&D Systems, Inc., Minneapolis, Minn.).

[2] = tested on: Poly(I:C)-induced innate/adaptive immune and IFNα/β-regulated genes, HFLS-RA cells; experiment: Genes modulated by IKKε/TBK1 inhibition in HFLS-RA cells (qRT-PCR arrays, Poly(I:C)); format: cell-based, human; conditions: 500 nM pre-treatment
Experimental: IKKε and TBK1 play important roles in modulating several innate/adaptive immune and interferon-regulated genes in response to bacterial and viral infections. To identify genes that are under the control of IKKε and TBK1 kinase activity HFLS-RA cells (Cell Applications, Inc., San Diego, Calif.) were pretreated with a compound according to Formula I (Example Compound 5) (0.5 uM), and then treated with the TLR3 agonist Poly(I:C). A focused RT-PCR array containing either 84 innate/adaptive immune-regulated or 84 IFNα/β-regulated genes were probed by qRT-PCR using mRNA isolated from the treated cells, as well as from untreated control cells, according to the following protocol.
HFLS cells isolated from patients with RA were obtained from Cell Applications, Inc. (HFLS-RA, Cell Applications, Inc., San Diego, Calif.). Cells were seeded in synoviocyte growth medium (Cell Applications, Inc., San Diego, Calif.) and allowed to grow overnight. The following day, media was replaced and cells were treated with 500 nM of Example Compound 5 (0.1% final DMSO concentration). Two hours later, cells were induced with 50 µg/mL Poly(I:C) (Sigma-Aldrich, St. Louis, Mo.). […] RNA was quantitated using Quant-iT™ RiboGreen® RNA Assay Kit (Invitrogen, Inc., Carlsbad, Calif.). […]

[3] = tested on: collagen-induced arthritis; experiment: Collagen-induced arthritis model in mice; format: in vivo; conditions: for day symptoms of arthritis appeared: days 18-34
Experimental: Male DBA/1 mice were injected with 150 μL of […] bovine type II collagen in Freund's complete adjuvant on days 0 and 21. On days 18 through 34, 100 mg/kg or 150 mg/kg Example Compound 5 was administered orally each day. Also on days 18 through 34, all mouse paws were given a clinical score on a scale of 0-5, based upon the severity of erythema and swelling. Body weights were measured every other day beginning on day 18. Mice were euthanized on day 34, livers were weighed and paws frozen in preparation for subsequent histopathology evaluation.

[4] = tested on: IFN-α2 mRNA, normal PBMCs; experiment: Agonist induced IFN-α2 mRNA in PBMCs from healthy donors (qRT-PCR); format: cell-based, human; conditions: LMW poly(I:C), serial dilutions
Description: To determine if inhibition of IKKε and/or TBK1 modulates nucleic acid agonist induced gene expression, high molecular weight poly(I:C) (MDA5 agonist) and low weight poly(I:C) (RIG-I agonist) were electroporated into human peripheral blood mononuclear cells (PBMCs) obtained from normal donors, or low molecular weight Poly(I:C) was electroporated into PBMCs from donors that have Systemic Lupus Erythematosus (SLE). Induction of IFN-α2, IFN-β, and BLyS mRNA production was monitored by qRT-PCR.
Human PBMCs were collected from healthy donors using routine laboratory procedures. PBMCs from SLE patients were purchased from Astarte Biologics (Redmond, Wash.). The PBMCs were electroporated using Nucleofector® Kit V (Lonza, Walkersville, Md.) with 0.4 ug/mL of high molecular weight poly (I:C) (InvivoGen, San Diego, Calif.) or 0.4 ug/mL low molecular weight poly (I:C) (InvivoGen, San Diego, Calif.) and seeded into wells containing serial dilutions of Example Compound 5 (0.1% final DMSO concentration). […] RNA was quantitated using Quant-iT™ RiboGreen® RNA Assay Kit (Invitrogen, Carlsbad, Calif.). Reverse transcription and real-time PCR were performed using the QuantiTect Probe RT-PCR Kit (Qiagen, Germantown, Md.) and the 7300 Real-Time PCR System (Applied Biosytems, Foster City, Calif.). […]

liver weights ([3]; any treatment (100 and 150 mg/kg), day 34): No differences
Compound: N#Cc1cc(-c2ccnc(Nc3ccc(N4CCOCC4)cc3)n2)ccc1OC1CCOCC1 [Example 5, 5-(2-{[4-(Morpholin-4-yl)phenyl]amino}pyrimidin-4-yl)-2-(tetrahydro-2H-pyran-4-yloxy)benzaonitrile]
IC50 [1]: ~60 nM | induction of genes normally induced by Poly(I:C) treatment [2]: potently inhibited | day symptoms were present in all mice ([3]; 100 mg/kg orally): ≤ 30 days | inhibition of AUC of clinical score as a function of time ([3]; 100 mg/kg orally): 29% | inhibition of body weight loss, day 18-34 ([3]; 100 mg/kg orally): 23% | reduction of magnitude of clinical score on day 34 ([3]; 100 mg/kg orally): 20% | day symptoms of arthritis appeared ([3]; 100 mg/kg orally each day): 23 days | day symptoms were present in all mice ([3]; 150 mg/kg orally): ≤ 30 days | inhibition of AUC of clinical score as a function of time ([3]; 150 mg/kg orally): 45% | inhibition of body weight loss, day 18-34 ([3]; 150 mg/kg orally): 42% | reduction of magnitude of clinical score on day 34 ([3]; 150 mg/kg orally): 38% | day symptoms of arthritis appeared ([3]; 150 mg/kg orally each day): 24 days | effect in reducing collagen-induced arthritis ([3]; 100 and 150 mg/kg orally): significant, dose-dependent effects | increases in erythema and swelling (cumulative clinical score) ([3]; both doses (100 and 150 mg/kg)): significantly slower | induction of IFN-α2 mRNA [4]: potently inhibited
